Source: the supplement of paper PMC10307832

Tests used:
Assay in all cases: relative viability (nuclei count vs DMSO), 5 days (fraction); higher = more cells survive
[1] = test system: HOP-62
Outline: (§1)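 Lung cancer cell lines were seeded in 1536-well plates and dosed by pin tool the next day, with either a single drug or a fixed anchor-drug dose combined with five library-drug doses (not always all listed) spaced in √10 steps. Five days later, one step fixed the cells and stained their nuclei (final 0.05% Triton X-100, 1% formaldehyde, 1 ug/ml Hoechst), and nuclei were counted on 4× images. Relative viability is the nuclei count in treated wells divided by the count in vehicle wells, and each value is the median of duplicate plates.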

[2] = test system: NCI-H322M
Outline: as §1

[3] = test system: NCI-H1755
Outline: as §1

[4] = test system: NCI-H1993
Outline: as §1

[5] = test system: PC-14
Outline: as §1

[6] = test system: NCI-H358
Outline: as §1

[7] = test system: NCI-H2170
Outline: as §1

[8] = test system: NCI-H1355
Outline: as §1

[9] = test system: NCI-H2228
Outline: as §1

[10] = test system: SK-MES-1
Outline: as §1

[11] = test system: HARA
Outline: as §1

[12] = test system: NCI-H838
Outline: as §1

[13] = test system: NCI-H2342
Outline: as §1

[14] = test system: NCI-H2347
Outline: as §1

[15] = test system: NCI-H1734
Outline: as §1

[16] = test system: COR-L23
Outline: as §1

[17] = test system: NCI-H522
Outline: as §1

[18] = test system: NCI-H647
Outline: as §1

[19] = test system: NCI-H2009
Outline: as §1

[20] = test system: NCI-H1793
Outline: as §1

[21] = test system: NCI-H1395
Outline: as §1

[22] = test system: COR-L 105
Outline: as §1

[23] = test system: EKVX
Outline: as §1

[24] = test system: UMC-11
Outline: as §1

`C[C@@H]1CN(CC(=O)Nc2ccc3c(c2)Cc2cccc(-c4cc(=O)cc(N5CCOCC5)o4)c2S3)C[C@H](C)O1` + Nc1nc2[nH]cc(CCc3ccc(C(=O)N[C@@H](CCC(=O)O)C(=O)O)cc3)c2c(=O)[nH]1 [Pemetrexed] (partner 0.2 µM) gave a relative viability ([1]; first compound 0.04 µM) of 0.318, a relative viability ([1]; first compound 0.1265 µM) of 0.33 and a relative viability ([1]; first compound 0.4 µM) of 0.317. It also gave a relative viability ([1]; first compound 4 µM) of 0.455, a relative viability ([2]; first compound 0.04 µM) of 0.597 and a relative viability ([2]; first compound 0.1265 µM) of 0.607. The relative viability ([2]; first compound 0.4 µM) was 0.649, the relative viability ([2]; first compound 4 µM) was 0.657 and the relative viability ([3]; first compound 0.04 µM) was 0.401. For the same compound, the relative viability ([3]; first compound 0.1265 µM) was 0.507, the relative viability ([3]; first compound 0.4 µM) was 0.453 and the relative viability ([3]; first compound 4 µM) was 0.47. It also gave a relative viability ([4]; first compound 0.04 µM) of 0.63, a relative viability ([4]; first compound 0.1265 µM) of 0.587 and a relative viability ([4]; first compound 0.4 µM) of 0.542. The relative viability ([4]; first compound 4 µM) was 0.578, the relative viability ([5]; first compound 0.04 µM) was 0.119 and the relative viability ([5]; first compound 0.1265 µM) was 0.141. It also gave a relative viability ([5]; first compound 0.4 µM) of 0.127, a relative viability ([5]; first compound 4 µM) of 0.116 and a relative viability ([6]; first compound 0.04 µM) of 0.179. It also gave a relative viability ([6]; first compound 0.1265 µM) of 0.154, a relative viability ([6]; first compound 0.4 µM) of 0.162 and a relative viability ([6]; first compound 4 µM) of 0.157. The relative viability ([7]; first compound 0.04 µM) was 0.266, the relative viability ([7]; first compound 0.1265 µM) was 0.286 and the relative viability ([7]; first compound 0.4 µM) was 0.259. It also gave a relative viability ([7]; first compound 4 µM) of 0.26, a relative viability ([8]; first compound 0.04 µM) of 0.941 and a relative viability ([8]; first compound 0.1265 µM) of 1.04. It also gave a relative viability ([8]; first compound 0.4 µM) of 0.959, a relative viability ([8]; first compound 4 µM) of 0.997 and a relative viability ([9]; first compound 0.04 µM) of 0.333. For the same compound, the relative viability ([9]; first compound 0.1265 µM) was 0.351, the relative viability ([9]; first compound 0.4 µM) was 0.34 and the relative viability ([9]; first compound 4 µM) was 0.226. For the same compound, the relative viability ([10]; first compound 0.04 µM) was 1.01, the relative viability ([10]; first compound 0.1265 µM) was 0.9 and the relative viability ([10]; first compound 0.4 µM) was 0.808. It also gave a relative viability ([10]; first compound 4 µM) of 0.808, a relative viability ([11]; first compound 0.04 µM) of 0.287 and a relative viability ([11]; first compound 0.1265 µM) of 0.24. For the same compound, the relative viability ([11]; first compound 0.4 µM) was 0.192, the relative viability ([11]; first compound 4 µM) was 0.214 and the relative viability ([12]; first compound 0.04 µM) was 0.262. For the same compound, the relative viability ([12]; first compound 0.1265 µM) was 0.244, the relative viability ([12]; first compound 0.4 µM) was 0.243 and the relative viability ([12]; first compound 4 µM) was 0.236. The relative viability ([13]; first compound 0.04 µM) was 0.745, the relative viability ([13]; first compound 0.1265 µM) was 0.777 and the relative viability ([13]; first compound 0.4 µM) was 0.767. For the same compound, the relative viability ([13]; first compound 4 µM) was 0.729, the relative viability ([14]; first compound 0.04 µM) was 0.413 and the relative viability ([14]; first compound 0.1265 µM) was 0.408. It also gave a relative viability ([14]; first compound 0.4 µM) of 0.413, a relative viability ([14]; first compound 4 µM) of 0.381 and a relative viability ([15]; first compound 0.04 µM) of 0.424. It also gave a relative viability ([15]; first compound 0.1265 µM) of 0.405, a relative viability ([15]; first compound 0.4 µM) of 0.386 and a relative viability ([15]; first compound 4 µM) of 0.398. It also gave a relative viability ([16]; first compound 0.04 µM) of 0.189, a relative viability ([16]; first compound 0.1265 µM) of 0.204 and a relative viability ([16]; first compound 0.4 µM) of 0.203. It also gave a relative viability ([16]; first compound 4 µM) of 0.206, a relative viability ([17]; first compound 0.04 µM) of 0.691 and a relative viability ([17]; first compound 0.1265 µM) of 0.89. The relative viability ([17]; first compound 0.4 µM) was 1.11, the relative viability ([17]; first compound 4 µM) was 1.11 and the relative viability ([18]; first compound 0.04 µM) was 0.19. It also gave a relative viability ([18]; first compound 0.1265 µM) of 0.154, a relative viability ([18]; first compound 0.4 µM) of 0.102 and a relative viability ([18]; first compound 4 µM) of 0.155. It also gave a relative viability ([19]; first compound 0.04 µM) of 1.06, a relative viability ([19]; first compound 0.1265 µM) of 0.968 and a relative viability ([19]; first compound 0.4 µM) of 1.05. It also gave a relative viability ([19]; first compound 4 µM) of 0.849, a relative viability ([20]; first compound 0.04 µM) of 0.98 and a relative viability ([20]; first compound 0.1265 µM) of 0.752. For the same compound, the relative viability ([20]; first compound 0.4 µM) was 0.855, the relative viability ([20]; first compound 4 µM) was 0.485 and the relative viability ([21]; first compound 0.1265 µM) was 0.833. For the same compound, the relative viability ([21]; first compound 0.4 µM) was 0.749, the relative viability ([21]; first compound 4 µM) was 1.08 and the relative viability ([22]; first compound 0.04 µM) was 1.15. For the same compound, the relative viability ([22]; first compound 0.1265 µM) was 1.07, the relative viability ([22]; first compound 0.4 µM) was 1.19 and the relative viability ([22]; first compound 4 µM) was 1.14. For the same compound, the relative viability ([23]; first compound 0.04 µM) was 0.376, the relative viability ([23]; first compound 0.1265 µM) was 0.42 and the relative viability ([23]; first compound 0.4 µM) was 0.31. It also gave a relative viability ([23]; first compound 4 µM) of 0.369, a relative viability ([24]; first compound 0.04 µM) of 0.757 and a relative viability ([24]; first compound 0.1265 µM) of 0.764. The relative viability ([24]; first compound 0.4 µM) was 0.767 and the relative viability ([24]; first compound 4 µM) was 0.674.
